Results as given in the NIST ThermoML archive (doi:10.1021/je300557g).
± gives the expanded uncertainty stated by the source.

Experiments:
[1] = 101.33 kPa, Liquid; for viscosity: Capillary tube (Ostwald / Ubbelohde) method; for mass density: Vibrating tube method
[2] = xn = mol fraction of the nth substance listed; settings: 101 kPa, Liquid; for mass density: Vibrating tube method

`CCCC[n+]1cccc(C)c1.F[B-](F)(F)F` [1-butyl-3-methylpyridinium tetrafluoroborate] gave a viscosity ([1]; 293.15 K) of 246.62 ± 6.8 mPa·s, a mass density ([1]; 293.15 K) of 1185.66 ± 0.4 kg/m3 and a viscosity ([1]; 303.15 K) of 129.91 ± 2.4 mPa·s. The mass density ([1]; 303.15 K) was 1178.86 ± 0.4 kg/m3, the viscosity ([1]; 313.15 K) was 76.46 ± 1 mPa·s and the mass density ([1]; 313.15 K) was 1172.11 ± 0.39 kg/m3. It also gave a viscosity ([1]; 323.15 K) of 48.18 ± 0.57 mPa·s and a mass density ([1]; 323.15 K) of 1165.37 ± 0.39 kg/m3.
In the case of `CCCC[n+]1ccc(C)cc1.F[B-](F)(F)F` [1-butyl-4-methylpyridinium tetrafluoroborate], the viscosity ([1]; 293.15 K) is reported as 284.62 ± 8.5 mPa·s, the mass density ([1]; 293.15 K) is reported as 1185.92 ± 0.4 kg/m3 and the viscosity ([1]; 303.15 K) is reported as 144.68 ± 2.9 mPa·s. It also gave a mass density ([1]; 303.15 K) of 1179.12 ± 0.4 kg/m3, a viscosity ([1]; 313.15 K) of 85.53 ± 1.2 mPa·s and a mass density ([1]; 313.15 K) of 1172.12 ± 0.39 kg/m3. It also gave a viscosity ([1]; 323.15 K) of 55.53 ± 0.63 mPa·s and a mass density ([1]; 323.15 K) of 1165.52 ± 0.39 kg/m3.
`CCCC[n+]1ccccc1.F[B-](F)(F)F` [1-butylpyridinium tetrafluoroborate] gave a viscosity ([1]; 293.15 K) of 220.54 ± 5.7 mPa·s, a mass density ([1]; 293.15 K) of 1217.11 ± 0.42 kg/m3 and a viscosity ([1]; 303.15 K) of 119.52 ± 2.1 mPa·s. It also gave a mass density ([1]; 303.15 K) of 1210.83 ± 0.42 kg/m3, a viscosity ([1]; 313.15 K) of 71.11 ± 0.89 mPa·s and a mass density ([1]; 313.15 K) of 1203.72 ± 0.42 kg/m3. The viscosity ([1]; 323.15 K) was 45.59 ± 0.54 mPa·s and the mass density ([1]; 323.15 K) was 1196.68 ± 0.41 kg/m3.
`CCCC[n+]1ccccc1.F[B-](F)(F)F` [1-butylpyridinium tetrafluoroborate] + CCO showed a mass density ([2]; 303.15 K, x1 = 0.0482) of 843.38 ± 0.32 kg/m3, a mass density ([2]; 303.15 K, x1 = 0.0945) of 892.42 ± 0.29 kg/m3 and a mass density ([2]; 303.15 K, x1 = 0.1932) of 972.49 ± 0.27 kg/m3. The mass density ([2]; 303.15 K, x1 = 0.2702) was 1019.05 ± 0.25 kg/m3, the mass density ([2]; 303.15 K, x1 = 0.3959) was 1076.24 ± 0.27 kg/m3 and the mass density ([2]; 303.15 K, x1 = 0.4954) was 1110.49 ± 0.28 kg/m3. It also gave a mass density ([2]; 303.15 K, x1 = 0.5999) of 1139.33 ± 0.31 kg/m3, a mass density ([2]; 303.15 K, x1 = 0.699) of 1161.67 ± 0.33 kg/m3 and a mass density ([2]; 303.15 K, x1 = 0.7963) of 1179.99 ± 0.36 kg/m3. It also gave a mass density ([2]; 303.15 K, x1 = 0.8477) of 1188.5 ± 0.37 kg/m3, a mass density ([2]; 303.15 K, x1 = 0.8984) of 1196.25 ± 0.39 kg/m3 and a mass density ([2]; 303.15 K, x1 = 0.9461) of 1203.06 ± 0.4 kg/m3. The kinematic viscosity ([2]; 303.15 K, x1 = 0.0482) was 1.42e-06 ± 2.1e-08 m2/s, the kinematic viscosity ([2]; 303.15 K, x1 = 0.0945) was 1.96e-06 ± 2.9e-08 m2/s and the kinematic viscosity ([2]; 303.15 K, x1 = 0.1932) was 3.17e-06 ± 4.6e-08 m2/s. It also gave a kinematic viscosity ([2]; 303.15 K, x1 = 0.2702) of 4.37e-06 ± 6.3e-08 m2/s, a kinematic viscosity ([2]; 303.15 K, x1 = 0.3959) of 7.13e-06 ± 9.9e-08 m2/s and a kinematic viscosity ([2]; 303.15 K, x1 = 0.4954) of 1.03e-05 ± 1.4e-07 m2/s. The kinematic viscosity ([2]; 303.15 K, x1 = 0.5999) was 1.57e-05 ± 2.1e-07 m2/s, the kinematic viscosity ([2]; 303.15 K, x1 = 0.699) was 2.36e-05 ± 3.2e-07 m2/s and the kinematic viscosity ([2]; 303.15 K, x1 = 0.7963) was 3.58e-05 ± 4.8e-07 m2/s. It also gave a kinematic viscosity ([2]; 303.15 K, x1 = 0.8477) of 4.48e-05 ± 6e-07 m2/s, a kinematic viscosity ([2]; 303.15 K, x1 = 0.8984) of 5.83e-05 ± 7.1e-07 m2/s and a kinematic viscosity ([2]; 303.15 K, x1 = 0.9461) of 7.37e-05 ± 1.2e-06 m2/s. For the same compound, the mass density ([2]; 313.15 K, x1 = 0.0482) was 834.98 ± 0.32 kg/m3, the mass density ([2]; 313.15 K, x1 = 0.0945) was 884.28 ± 0.29 kg/m3 and the mass density ([2]; 313.15 K, x1 = 0.1932) was 964.73 ± 0.27 kg/m3. The mass density ([2]; 313.15 K, x1 = 0.2702) was 1011.49 ± 0.25 kg/m3, the mass density ([2]; 313.15 K, x1 = 0.3959) was 1068.89 ± 0.27 kg/m3 and the mass density ([2]; 313.15 K, x1 = 0.4954) was 1103.28 ± 0.28 kg/m3. It also gave a mass density ([2]; 313.15 K, x1 = 0.5999) of 1132.29 ± 0.31 kg/m3, a mass density ([2]; 313.15 K, x1 = 0.699) of 1154.79 ± 0.33 kg/m3 and a mass density ([2]; 313.15 K, x1 = 0.7963) of 1173.24 ± 0.36 kg/m3. It also gave a mass density ([2]; 313.15 K, x1 = 0.8477) of 1181.82 ± 0.37 kg/m3, a mass density ([2]; 313.15 K, x1 = 0.8984) of 1189.62 ± 0.38 kg/m3 and a mass density ([2]; 313.15 K, x1 = 0.9461) of 1196.46 ± 0.4 kg/m3. For the same compound, the kinematic viscosity ([2]; 313.15 K, x1 = 0.0482) was 1.29e-06 ± 1.9e-08 m2/s, the kinematic viscosity ([2]; 313.15 K, x1 = 0.0945) was 1.68e-06 ± 2.5e-08 m2/s and the kinematic viscosity ([2]; 313.15 K, x1 = 0.1932) was 2.57e-06 ± 3.8e-08 m2/s. The kinematic viscosity ([2]; 313.15 K, x1 = 0.2702) was 3.45e-06 ± 5e-08 m2/s, the kinematic viscosity ([2]; 313.15 K, x1 = 0.3959) was 5.43e-06 ± 7.8e-08 m2/s and the kinematic viscosity ([2]; 313.15 K, x1 = 0.4954) was 7.61e-06 ± 1.1e-07 m2/s. It also gave a kinematic viscosity ([2]; 313.15 K, x1 = 0.5999) of 1.14e-05 ± 1.6e-07 m2/s, a kinematic viscosity ([2]; 313.15 K, x1 = 0.699) of 1.65e-05 ± 2.2e-07 m2/s and a kinematic viscosity ([2]; 313.15 K, x1 = 0.7963) of 2.41e-05 ± 3.2e-07 m2/s. It also gave a kinematic viscosity ([2]; 313.15 K, x1 = 0.8477) of 2.95e-05 ± 3.9e-07 m2/s, a kinematic viscosity ([2]; 313.15 K, x1 = 0.8984) of 3.73e-05 ± 5e-07 m2/s and a kinematic viscosity ([2]; 313.15 K, x1 = 0.9461) of 4.58e-05 ± 6.2e-07 m2/s. The mass density ([2]; 323.15 K, x1 = 0.0482) was 826.69 ± 0.32 kg/m3, the mass density ([2]; 323.15 K, x1 = 0.0945) was 876.45 ± 0.3 kg/m3 and the mass density ([2]; 323.15 K, x1 = 0.1932) was 957.44 ± 0.28 kg/m3. For the same compound, the mass density ([2]; 323.15 K, x1 = 0.2702) was 1004.32 ± 0.25 kg/m3, the mass density ([2]; 323.15 K, x1 = 0.3959) was 1061.7 ± 0.27 kg/m3 and the mass density ([2]; 323.15 K, x1 = 0.4954) was 1096.06 ± 0.28 kg/m3. For the same compound, the mass density ([2]; 323.15 K, x1 = 0.5999) was 1125.08 ± 0.3 kg/m3, the mass density ([2]; 323.15 K, x1 = 0.699) was 1147.65 ± 0.33 kg/m3 and the mass density ([2]; 323.15 K, x1 = 0.7963) was 1166.21 ± 0.35 kg/m3. The mass density ([2]; 323.15 K, x1 = 0.8477) was 1174.82 ± 0.37 kg/m3, the mass density ([2]; 323.15 K, x1 = 0.8984) was 1182.65 ± 0.38 kg/m3 and the mass density ([2]; 323.15 K, x1 = 0.9461) was 1189.47 ± 0.39 kg/m3. It also gave a kinematic viscosity ([2]; 323.15 K, x1 = 0.0482) of 1.15e-06 ± 1.8e-08 m2/s, a kinematic viscosity ([2]; 323.15 K, x1 = 0.0945) of 1.41e-06 ± 2.1e-08 m2/s and a kinematic viscosity ([2]; 323.15 K, x1 = 0.1932) of 2.06e-06 ± 3.1e-08 m2/s. It also gave a kinematic viscosity ([2]; 323.15 K, x1 = 0.2702) of 2.73e-06 ± 4e-08 m2/s, a kinematic viscosity ([2]; 323.15 K, x1 = 0.3959) of 4.24e-06 ± 6.2e-08 m2/s and a kinematic viscosity ([2]; 323.15 K, x1 = 0.4954) of 5.94e-06 ± 8.5e-08 m2/s. For the same compound, the kinematic viscosity ([2]; 323.15 K, x1 = 0.5999) was 8.55e-06 ± 1.2e-07 m2/s, the kinematic viscosity ([2]; 323.15 K, x1 = 0.699) was 1.2e-05 ± 1.7e-07 m2/s and the kinematic viscosity ([2]; 323.15 K, x1 = 0.7963) was 1.7e-05 ± 2.3e-07 m2/s. The kinematic viscosity ([2]; 323.15 K, x1 = 0.8477) was 2.05e-05 ± 2.8e-07 m2/s, the kinematic viscosity ([2]; 323.15 K, x1 = 0.8984) was 2.53e-05 ± 3.4e-07 m2/s and the kinematic viscosity ([2]; 323.15 K, x1 = 0.9461) was 3.05e-05 ± 4.1e-07 m2/s.
Compound `CCO` [ethanol] has a viscosity ([1]; 293.15 K) of 1.18 ± 0.014 mPa·s, a mass density ([1]; 293.15 K) of 789.48 ± 0.24 kg/m3 and a viscosity ([1]; 303.15 K) of 0.981 ± 0.011 mPa·s. The mass density ([1]; 303.15 K) was 781.3 ± 0.24 kg/m3, the viscosity ([1]; 313.15 K) was 0.822 ± 0.0097 mPa·s and the mass density ([1]; 313.15 K) was 772.57 ± 0.24 kg/m3. It also gave a viscosity ([1]; 323.15 K) of 0.6939 ± 0.0083 mPa·s and a mass density ([1]; 323.15 K) of 763.65 ± 0.25 kg/m3.
`CO` [methanol] gave a viscosity ([1]; 293.15 K) of 0.5833 ± 0.0069 mPa·s, a mass density ([1]; 293.15 K) of 791.24 ± 0.23 kg/m3 and a viscosity ([1]; 303.15 K) of 0.507 ± 0.006 mPa·s. It also gave a mass density ([1]; 303.15 K) of 781.81 ± 0.23 kg/m3, a viscosity ([1]; 313.15 K) of 0.4438 ± 0.0053 mPa·s and a mass density ([1]; 313.15 K) of 772.29 ± 0.24 kg/m3. For the same compound, the viscosity ([1]; 323.15 K) was 0.3873 ± 0.0047 mPa·s and the mass density ([1]; 323.15 K) was 762.63 ± 0.24 kg/m3.
